The numbers were not newly measured in patent publication US7897820B2, “Process for preparing erianin” (Zhe Jiang Cell Biomedical Research Co., Ltd., priority 2005, dated 2011), which cites them from elsewhere.

For data set [1] the following is noted: compared with 5FU.
The subject of data set [2] is tumor cell strain K256. The conditions noted are these: among dihydrobibenzyls and phenanthrenes in Dendrobium chrysotoxum.
For data set [3], the system named is human leukemia HL-60 cells.
Data set [4] deals with liver cancer of mouse.
Data set [5] concerns microtubulin. The conditions noted are these: target is the microtubulin in the cell.

`COc1ccc(CCc2cc(OC)c(OC)c(OC)c2)cc1O` [Erianin, 2-methoxyl-5-[2-(3,4,5-trimethoxyphenyl)]ethyl phenol]: the side effect entry in data set [1] is listed as “far lower then 5FU”. In addition, the “inhibitory effect on the growth of tumor cell strain K256” value in data set [2] is “most active”. The “inhibition of growth of human leukemia HL-60 cells” value in data set [3] is recorded as “significantly inhibited the growth”. In addition, the tumor inhibitory rate in data set [4] was 50.82%. The “effect on polymerizing of microtubulin” value in data set [5] is recorded as “inhibit the polymerizing of microtubulin”.
